In ChEMBL document CHEMBL6078635, “Advances in diarylpyrimidines and related analogues as HIV-1 nonnucleoside reverse transcriptase inhibitors (2019-2023)” (Eur J Med Chem, 2024):

Assays:
[1] = system: Human immunodeficiency virus 1; test: Antiviral activity against wild type HIV-1; assay type: functional, organism-based
[2] = system: Human immunodeficiency virus 1; test: Antiviral activity against HIV1 harboring K103N/Y181C double mutant; assay type: functional, organism-based
[3] = Selectivity index, ratio of CC50 for cytotoxicity against human MT4 cells to EC50 for antiviral activity against wild type HIV-1 IIIB infected in human MT4 cells; assay type: toxicity, cell-based; conditions: read-out: Selectivity Index
[4] = system: MT4; test: Cytotoxicity against human MT4 cells assessed as reduction in cell viability after 5 days by MTT assay; assay type: functional; conditions: MT4, 120 h, time 5 day
[5] = system: Human immunodeficiency virus 1; test: Antiviral activity against HIV1 harboring K103N mutant infected in MT4 cells; assay type: functional, organism-based; conditions: Human immunodeficiency virus 1, MT4
[6] = system: Human immunodeficiency virus 1; test: Antiviral activity against HIV-1 […] mutant; assay type: functional, organism-based
[7] = system: Human immunodeficiency virus 1; test: Antiviral activity against HIV1 harboring F227L/V106A double mutant infected in MT4 cells; assay type: functional, organism-based; conditions: Human immunodeficiency virus 1, MT4
[8] = system: Human immunodeficiency virus 1; test: Antiviral activity against HIV1 harboring Y181C mutant infected in MT4 cells; assay type: functional, organism-based; conditions: Human immunodeficiency virus 1, MT4
[9] = system: Human immunodeficiency virus 1; test: Antiviral activity against HIV1 harboring E138K mutant infected in MT4 cells; assay type: functional, organism-based; conditions: Human immunodeficiency virus 1, MT4
[10] = system: Human immunodeficiency virus 1; test: Antiviral activity against HIV1 harboring Y188L mutant infected in MT4 cells; assay type: functional, organism-based; conditions: Human immunodeficiency virus 1, MT4
[11] = system: Human immunodeficiency virus 1; test: Antiviral activity against wild type HIV-1 3B; assay type: functional, organism-based; conditions: Human immunodeficiency virus 1, 3B
[12] = Oral bioavailability in human; assay type: ADME, organism-based; conditions: in vivo
[13] = biological target: Human immunodeficiency virus type 1 reverse transcriptase (Human immunodeficiency virus 1, UniProt Q72547); test: Inhibition of wild type HIV-1 Reverse transcriptase
[14] = system: Human immunodeficiency virus 1; test: Antiviral activity against HIV-1 3B harboring F227L/V106A double mutant infected in MT4 cells assessed as reduction in virus induced cytopathic effect incubated for 5 days by MTT method; assay type: functional, organism-based; conditions: Human immunodeficiency virus 1, 3B, MT4, 120 h
[15] = system: Human immunodeficiency virus 1; test: Antiviral activity against HIV-1 Y188L mutant infected in human MT4 cells assessed as reduction in virus induced cytopathic effect incubated for 5 days by MTT method; assay type: functional, organism-based; conditions: Human immunodeficiency virus 1, MT4, 120 h
[16] = system: Human immunodeficiency virus 1; test: Antiviral activity against NNRTI-resistant HIV-1 harboring Y181C mutant assessed as inhibition of viral growth; assay type: functional, organism-based
[17] = system: Human immunodeficiency virus 1; test: Antiviral activity against wild type HIV-1 3B infected in human MT4 cells assessed as inhibition of virus-induced cytopathic effect measured for 5 days by MTT assay; assay type: functional, organism-based; conditions: Human immunodeficiency virus 1, 3B, MT4, 120 h
[18] = system: Human immunodeficiency virus 1; test: Antiviral activity against HIV1 harboring K103N mutant infected in MT4 cells assessed as inhibition of viral growth; assay type: functional, organism-based; conditions: Human immunodeficiency virus 1, MT4
[19] = system: Human immunodeficiency virus 1; test: Antiviral activity against HIV-1 3B harboring L100I mutant infected in MT4 cells assessed as reduction in virus induced cytopathic effect incubated for 5 days by MTT method; assay type: functional, organism-based; conditions: Human immunodeficiency virus 1, 3B, MT4, 120 h
[20] = system: Human immunodeficiency virus 1; test: Antiviral activity against HIV-1 3B harboring E138K mutant infected in MT4 cells assessed as reduction in virus induced cytopathic effect incubated for 5 days by MTT assay; assay type: functional, organism-based; conditions: Human immunodeficiency virus 1, 3B, MT4, 120 h

For `N#Cc1ccc(Nc2nccc(Oc3ccc4cc(C#N)ccc4c3Br)n2)cc1`, the EC50 [1] was 0.002 µM, the EC50 [2] was 0.24 µM and the selectivity ratio [3] was 181000. It also gave a CC50 [4] of 283 µM.
In the case of `COc1cc2cc(C#N)ccc2c(OC)c1Oc1ccnc(Nc2ccc(C#N)cc2)n1`, the EC50 [1] is reported as 0.005 µM, the EC50 [2] is reported as 0.16 µM and the selectivity ratio [3] is reported as > 25000. The CC50 [4] was > 118 µM.
With `Cc1cc(C#N)cc(C)c1Oc1ccnc(S(=O)(=O)CC(=O)Nc2ccc(C#N)cc2)n1` the EC50 [1] was 0.002 µM, the selectivity ratio [3] was > 3540 and the CC50 [4] was > 6.01 µM.
In the case of `Cc1cc(-c2ccc(C#N)cc2)cc(C)c1Nc1ccnc(Nc2ccc(C#N)cc2)n1`, the selectivity ratio [3] is reported as 2060 and the CC50 [4] is reported as 2.08 µM.
For `N#Cc1ccc(Nc2nccc(Oc3ccc4ccccc4c3Br)n2)cc1`, the EC50 [1] was 0.0024 µM, the EC50 [2] was 6.75 µM and the selectivity ratio [3] was 65600. The CC50 [4] was 154 µM.
With `Cc1cc(C(C#N)c2ccccc2F)nc(Nc2ccc(C#N)cc2)n1` (stereo not drawn) the EC50 [1] was 0.0018 µM.
For `Cc1cc(C#Cc2cccnc2)cc(C)c1Oc1ccnc(Nc2ccc(C#N)cc2)n1`, the EC50 [1] was 0.003 µM, the EC50 [2] was 0.935 µM and the EC50 [5] was 0.01 µM. For the same molecule, the EC50 [6] was 0.076 µM, the EC50 [7] was 0.209 µM and the CC50 [4] was 3.48 µM.
For `N#Cc1ccc(Nc2nccc(/C(=N/O)c3ccc(-c4ccc(F)cc4)cc3F)n2)cc1`, the EC50 [8] was 0.182 µM, the EC50 [1] was 0.012 µM and the EC50 [9] was 0.17 µM. It also gave an EC50 [2] of 22.7 µM, an EC50 [5] of 0.5 µM and an EC50 [6] of 0.4 µM. The EC50 [10] was 3.43 µM, the EC50 [7] was 4.6 µM and the CC50 [4] was > 292 µM.
Work on `Cc1cc(/C=C/C#N)cc([N+](=O)[O-])c1Nc1nc(Nc2ccc(C#N)cc2)nc2ccccc12` yielded an EC50 [11] of 0.0034 µM and a bioavailability [12] of 16.5%.
Molecule `Cc1cc(/C=C/C#N)cc([N+](=O)[O-])c1Nc1nc(Nc2ccc(C#N)cc2)nc2ccc(Cl)cc12` has an EC50 [11] of 0.0106 µM and a bioavailability [12] of 16%.
For `N#Cc1ccc(Nc2ncc(C(N)=O)c(Oc3ccc4cc(C#N)ccc4c3)n2)cc1`, the EC50 [1] was 0.0037 µM, the EC50 [9] was 0.011 µM and the selectivity ratio [3] was 84700. For the same molecule, the CC50 [4] was > 307 µM.
`Cc1cc(-c2ccc(C#N)cc2)cc(C)c1Oc1ccnc(S(=O)(=O)CC(=O)Nc2ccc(C#N)cc2)n1` showed an EC50 [8] of 0.026 µM, an EC50 [1] of 0.006 µM and an EC50 [9] of 0.026 µM. It also gave an EC50 [2] of 0.226 µM, an EC50 [5] of 0.006 µM and an EC50 [6] of 0.008 µM. For the same molecule, the IC50 [13] was 0.142 µM, the EC50 [10] was 0.122 µM and the EC50 [7] was 0.642 µM. The selectivity ratio [3] was 4070 and the CC50 [4] was 24.4 µM.
Molecule `COc1ccc(-c2cc(C)c(Oc3nc(NC4CCN(Cc5ccc(C(N)=O)cc5)CC4)nc4ccsc34)c(C)c2)cc1` has an EC50 [14] of 0.297 µM, an EC50 [2] of 1.12 µM and an EC50 [15] of 0.11 µM. The EC50 [16] was 0.158 µM, the EC50 [17] was 0.0526 µM and the EC50 [18] was 0.0584 µM. The EC50 [19] was 0.268 µM and the EC50 [20] was 0.149 µM.
For `Cc1cc(-c2ccc(N(C)C)cc2)cc(C)c1Oc1nc(NC2CCN(Cc3ccc(C(N)=O)cc3)CC2)nc2ccsc12`, the EC50 [14] was 1.25 µM, the EC50 [2] was > 23.5 µM and the EC50 [15] was 0.556 µM. The EC50 [16] was 0.585 µM, the EC50 [17] was 0.176 µM and the EC50 [18] was 0.173 µM. The EC50 [19] was 1.11 µM and the EC50 [20] was 0.245 µM.
